Data as given in PubChem BioAssay AID328 (DTP/NCI, 2004).
Where “and” joins values, the source holds several entries; their conditions need not be identical. Identical values can stand only once. Toxic doses and inconclusive results are not listed.

Tested on: BDF1 mice, P388 leukemia ip, median survival T/C
Assay: NCI In Vivo Anticancer Drug Screen. Data for tumor model P388 Leukemia (intraperitoneal) in B6D2F1 (BDF1) mice
Conditions: endpoint: median survival time, higher = longer survival
Outline: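 Reported as T/C, where T is the survival measurement in dosed animals and C the same measurement in vehicle controls.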

[1] = dose: 6.25 mg/kg/injection, schedule: Q01DX009 (ip), vehicle: saline
[2] = dose: 12.5 mg/kg/injection, schedule: Q01DX009 (ip), vehicle: saline
[3] = dose: 25.0 mg/kg/injection, schedule: Q04DX003 (ip), vehicle: saline
[4] = dose: 50.0 mg/kg/injection, schedule: Q04DX003 (ip), vehicle: saline
[5] = dose: 50.0 mg/kg/injection, schedule: Q01DX009 (ip), vehicle: saline with Tween-80
[6] = dose: 50.0 mg/kg/injection, schedule: Q04DX003 (ip), vehicle: saline with Tween-80
[7] = dose: 100.0 mg/kg/injection, schedule: Q01DX009 (ip), vehicle: saline with Tween-80
[8] = dose: 100.0 mg/kg/injection, schedule: Q04DX003 (ip), vehicle: saline with Tween-80
[9] = dose: 200.0 mg/kg/injection, schedule: Q01DX009 (ip), vehicle: saline with Tween-80
[10] = dose: 400.0 mg/kg/injection, schedule: Q01DX009 (ip), vehicle: saline with Tween-80
[11] = dose: 100.0 mg/kg/injection, schedule: Q01DX009 (ip), vehicle: Klucel (hydroxypropylcellulose) (HPC)
[12] = dose: 200.0 mg/kg/injection, schedule: Q01DX009 (ip), vehicle: Klucel (hydroxypropylcellulose) (HPC)
[13] = dose: 400.0 mg/kg/injection, schedule: Q01DX009 (ip), vehicle: Klucel (hydroxypropylcellulose) (HPC)
[14] = dose: 66.0 mg/kg/injection, schedule: Q04DX003 (ip), vehicle: saline with Tween-80
[15] = dose: 50.0 mg/kg/injection, schedule: Q01DX005 (ip), vehicle: saline with Tween-80
[16] = dose: 100.0 mg/kg/injection, schedule: Q01DX005 (ip), vehicle: saline with Tween-80
[17] = dose: 200.0 mg/kg/injection, schedule: Q01DX005 (ip), vehicle: saline with Tween-80
[18] = dose: 200.0 mg/kg/injection, schedule: Q04DX003 (ip), vehicle: saline with Tween-80
[19] = dose: 25.0 mg/kg/injection, schedule: Q01DX009 (ip), vehicle: saline with Tween-80
[20] = dose: 400.0 mg/kg/injection, schedule: Q04DX003 (ip), vehicle: saline with Tween-80
[21] = dose: 100.0 mg/kg/injection, schedule: Q04DX003 (ip), vehicle: Klucel (hydroxypropylcellulose) (HPC)
[22] = dose: 200.0 mg/kg/injection, schedule: Q04DX003 (ip), vehicle: Klucel (hydroxypropylcellulose) (HPC)

Structure (SMILES): COc1cccc(CC2c3ccccc3Nc3ccccc32)c1
- T/C (dose: 100.0 mg/kg/injection, schedule: Q01DX001 (ip), vehicle: saline with Tween-80): 88 % of control
- T/C (dose: 200.0 mg/kg/injection, schedule: Q01DX001 (ip), vehicle: saline with Tween-80): 87 % of control
- T/C (dose: 400.0 mg/kg/injection, schedule: Q01DX001 (ip), vehicle: saline with Tween-80): 89 % of control

Structure (SMILES): O=c1[nH]c(=O)n(C2CC(O)C(CO)O2)cc1Br (centres undefined)
- T/C (dose: 100.0 mg/kg/injection, schedule: Q04DX003 (ip), vehicle: saline sonified): 100 % of control
- T/C (dose: 200.0 mg/kg/injection, schedule: Q04DX003 (ip), vehicle: saline sonified): 100 % of control
- T/C (dose: 400.0 mg/kg/injection, schedule: Q04DX003 (ip), vehicle: saline sonified): 100 % of control

Structure (SMILES): O=S(=O)(O)O.[N-]=C(N)/N=C(\[NH-])N.[N-]=C(N)/N=C(\[NH-])N.[N-]=C(N)NC(=[N-])N.[Rh+3]
- T/C [1]: 104 % of control
- T/C [2]: 95 % of control
- T/C (dose: 12.5 mg/kg/injection, schedule: Q04DX003 (ip), vehicle: saline): 100 % of control
- T/C (dose: 25.0 mg/kg/injection, schedule: Q01DX009 (ip), vehicle: saline): 119 % of control
- T/C [3]: 109 % of control
- T/C [4]: 118 % of control

Structure (SMILES): O=C(CBr)c1ccc(/C=C/c2ccc(Cl)cc2)cc1
- T/C [5]: 95 % of control
- T/C [6]: 109 % of control
- T/C [7]: 120 % of control
- T/C [8]: 109 % of control

Structure (SMILES): NS(=O)(=O)c1c([N+](=O)[O-])ncn1C1OC(COC(=O)c2ccccc2)C(OC(=O)c2ccccc2)C1OC(=O)c1ccccc1 (centres undefined)
- T/C [3]: 105 % of control
- T/C [4]: 100 % of control
- T/C (dose: 100.0 mg/kg/injection, schedule: Q04DX003 (ip), vehicle: saline): 121 % of control
- T/C (dose: 200.0 mg/kg/injection, schedule: Q04DX003 (ip), vehicle: saline): 124 % of control

Structure (SMILES): Clc1nc2nc(C3CC3)[nH]c2nc1Cl
- T/C [7]: 104 % of control
- T/C [9]: 100 % of control
- T/C [10]: 104 % of control

Structure (SMILES): CC(=O)OCC1OC(n2cc(C(F)(F)F)c(=O)[nH]c2=O)CC1OC(C)=O (centres undefined)
- T/C (dose: 62.5 mg/kg/injection, schedule: Q01DX009 (ip), vehicle: Klucel (hydroxypropylcellulose) (HPC)): 95 % of control
- T/C [11]: 100 % of control
- T/C (dose: 125.0 mg/kg/injection, schedule: Q01DX009 (ip), vehicle: Klucel (hydroxypropylcellulose) (HPC)): 109 % of control
- T/C [12]: 100 % of control
- T/C (dose: 250.0 mg/kg/injection, schedule: Q01DX009 (ip), vehicle: Klucel (hydroxypropylcellulose) (HPC)): 90 % of control
- T/C [13]: 105 % of control
- T/C (dose: 500.0 mg/kg/injection, schedule: Q01DX009 (ip), vehicle: Klucel (hydroxypropylcellulose) (HPC)): 109 % of control

Structure (SMILES): COc1cc2c(c(OC)c1OC)-c1cc(I)c(O)cc1[C@@H](NC(C)=O)CC2
- T/C (dose: 2.75 mg/kg/injection, schedule: Q04DX003 (ip), vehicle: saline with Tween-80): 110 % of control
- T/C (dose: 5.5 mg/kg/injection, schedule: Q04DX003 (ip), vehicle: saline with Tween-80): 104 % of control
- T/C (dose: 11.0 mg/kg/injection, schedule: Q04DX003 (ip), vehicle: saline with Tween-80): 155 % of control
- T/C (dose: 22.0 mg/kg/injection, schedule: Q04DX003 (ip), vehicle: saline with Tween-80): 160 % of control
- T/C [14]: 185 % of control and 222 % of control
- T/C [8]: 180 % of control and 194 % of control
- T/C (dose: 150.0 mg/kg/injection, schedule: Q04DX003 (ip), vehicle: saline with Tween-80): 205 % of control

Structure (SMILES): COc1cc2c(cc1OC)-c1cc3cc(OC)c(OC)cc3c(C)[n+]1CC2
- T/C (dose: 12.5 mg/kg/injection, schedule: Q01DX009 (ip), vehicle: Klucel (hydroxypropylcellulose) (HPC)): 106 % of control
- T/C (dose: 25.0 mg/kg/injection, schedule: Q01DX009 (ip), vehicle: Klucel (hydroxypropylcellulose) (HPC)): 106 % of control
- T/C (dose: 50.0 mg/kg/injection, schedule: Q01DX009 (ip), vehicle: Klucel (hydroxypropylcellulose) (HPC)): 113 % of control

Structure (SMILES): Cc1cc(Cl)nc(Cl)c1C(N)=O
- T/C [15]: 100 % of control
- T/C [16]: 100 % of control
- T/C [17]: 100 % of control

Structure (SMILES): CC(=O)OCC(=O)[C@@]1(O)CC[C@H]2[C@@H]3CCC4=CC(=O)CC[C@]4(C)[C@H]3C(=O)C[C@@]21C
- T/C [5]: 95 % of control
- T/C [7]: 112 % of control
- T/C [8]: 100 % of control
- T/C [9]: 100 % of control
- T/C [18]: 86 % of control

Structure (SMILES): Cc1c(C#N)c2nc(C(=O)c3ccc(Br)cc3)cc(-c3ccc(Br)cc3)n2c1C
- T/C [19]: 109 % of control
- T/C [5]: 104 % of control
- T/C [6]: 87 % of control
- T/C [7]: 104 % of control
- T/C [8]: 91 % of control
- T/C [9]: 109 % of control
- T/C [18]: 87 % of control
- T/C [20]: 87 % of control

Structure (SMILES): CO[C@H](C)[C@](O)(C(=O)OCC1=CCN2CC[C@@H](O)[C@H]12)C(C)C
- T/C (dose: 25.0 mg/kg/injection, schedule: Q01DX010 (ip), vehicle: carboxymethylcellulose (CMC)): 111 % of control
- T/C (dose: 50.0 mg/kg/injection, schedule: Q01DX010 (ip), vehicle: carboxymethylcellulose (CMC)): 111 % of control
- T/C (dose: 100.0 mg/kg/injection, schedule: Q01DX010 (ip), vehicle: carboxymethylcellulose (CMC)): 111 % of control

Structure (SMILES): CC12COC(=O)CC1CCC1C2CCC2(C)C1CCC2(C)O (centres undefined)
- T/C [5]: 90 % of control
- T/C [7]: 95 % of control
- T/C [9]: 100 % of control

Structure (SMILES): CC(=O)CC(=O)N1CCCCCC1
- T/C [7]: 89 % of control
- T/C [8]: 109 % of control
- T/C [9]: 92 % of control
- T/C [18]: 90 % of control
- T/C [10]: 107 % of control
- T/C [20]: 104 % of control

Structure (SMILES): CCOC(=O)C(=O)c1c[nH]c2ccccc12
- T/C [6]: 90 % of control
- T/C [11]: 109 % of control
- T/C [8]: 104 % of control
- T/C [12]: 90 % of control
- T/C [18]: 100 % of control
- T/C [13]: 109 % of control

Structure (SMILES): C=CC(COC(=O)C(C)(C)OC(C)=O)c1ccc(OC(=O)C(C)C)c(OC)c1 (centres undefined)
- T/C (dose: 1.56 mg/kg/injection, schedule: Q01DX009 (ip), vehicle: saline): 119 % of control
- T/C (dose: 3.13 mg/kg/injection, schedule: Q01DX009 (ip), vehicle: saline): 100 % of control
- T/C [1]: 103 % of control
- T/C [2]: 100 % of control

Structure (SMILES): O=C(CC(c1ccccc1)c1ccccc1)c1ccccc1
- T/C [11]: 108 % of control
- T/C [21]: 120 % of control
- T/C [12]: 108 % of control
- T/C [22]: 110 % of control
- T/C [13]: 91 % of control
- T/C (dose: 400.0 mg/kg/injection, schedule: Q04DX003 (ip), vehicle: Klucel (hydroxypropylcellulose) (HPC)): 120 % of control

Structure (SMILES): O=NN1CCCNC1=O
- T/C [14]: 245 % of control
- T/C [8]: 116 % of control

Structure (SMILES): CCCOC(=O)c1ccc([N+](=O)[O-])cc1
- T/C [11]: 95 % of control
- T/C [12]: 100 % of control
- T/C [13]: 100 % of control

Structure (SMILES): CC(=O)OCC1OC(n2cnc3c(=S)nc[nH]c32)C(OC(C)=O)C1OC(C)=O (centres undefined)
- T/C [7]: 118 % of control
- T/C [9]: 109 % of control
- T/C [10]: 90 % of control

Structure (SMILES): CCC(C)c1ccccc1OC(=O)Nc1ccc(OC)cc1 (centres undefined)
- T/C (dose: 50.0 mg/kg/injection, schedule: Q04DX003 (ip), vehicle: Klucel (hydroxypropylcellulose) (HPC)): 95 % of control
- T/C [21]: 100 % of control
- T/C [22]: 100 % of control

Structure (SMILES): CC(=O)C(C(C)=O)C(Cl)C(C(C)=O)C(C)=O
- T/C [15]: 99 % of control
- T/C [16]: 92 % of control
- T/C [17]: 99 % of control

Structure (SMILES): COc1cc2c3c(c1)/C(=N\N)CCN3CCC2
- T/C [19]: 110 % of control
- T/C [5]: 110 % of control
- T/C [6]: 113 % of control
- T/C [7]: 100 % of control
- T/C [8]: 95 % of control
- T/C [18]: 100 % of control
